Assay in all cases: NCI tumour cell line growth inhibition, 48 h
Test [1] concerns OVCAR-4 ovarian.
The subject of test [2] is HOP-92 NSCLC.
For test [3], the system named is UACC-257 melanoma.
Test [4] relates to CCRF-CEM leukemia.
Test [5] has as its system NCI-H23 lung.
Test [6] has as its system SR leukemia.
In test [7] the test system is SN12C renal.
In test [8] the test system is TK-10 renal.
The test system of test [9] is UACC-62 melanoma.
For test [10], the system named is MALME-3M melanoma.

SMILES strings stand for the structures.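 Method: 48-hour compound exposure of cells in 96-well plates, five concentrations, linear interpolation of endpoints. GI50 = concentration required for 50% inhibition of growth. TGI: concentration producing complete growth inhibition.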

Regarding `c1ccc2c(c1)CCCc1nnc3nc4ccccc4n3c1-2`, the GI50 in test [1] is 3.98 µM; in test [2] it was 9.53 µM; in [3] it was 5.27 µM; in test [4], 3.68 µM; in test [5], 7.31 µM; in [6], 3.16 µM. In addition, the GI50 in [7] was 8.15 µM; in test [8] it was 6.8 µM; in test [9], 6.54 µM. The TGI in test [1] is greater than 100 µM; in [2] it was greater than 100 µM; in test [3], greater than 100 µM; in test [4], greater than 100 µM; in test [5], greater than 100 µM; in [6] it was 25.7 µM. For the same compound, the TGI in test [7], in [8] and in [9] was greater than 100 µM each time.

For `Cc1ccccc1N=C(c1ccccc1)C1C(=O)c2ccccc2C1=O`, the GI50 in test [1] is 20.4 µM; in [2] it was 14.4 µM; in test [3], 18 µM; in test [4], 12.8 µM; in test [5], 15.8 µM; in [7] it was 19.9 µM. Further, the GI50 is 0.562 µM in test [10], 8.43 µM in [8] and 11.6 µM in test [9]. The TGI in [1] is greater than 100 µM; in [2], 53.8 µM; in test [3], 96.6 µM; in test [4], 62.3 µM; in test [5], greater than 100 µM; in test [7], greater than 100 µM. In addition, the TGI in [10] is 6.66 µM; in test [8], 38.5 µM; in test [9], 30.7 µM.

Turning to `O=C1C2=C(c3ccccc31)C(c1ccc([N+](=O)[O-])cc1)NC(=S)N2` (stereo not given), the TGI in [1], in test [2], in test [3], in [4], in test [5] and in test [7] was greater than 100 µM each time. Besides, the TGI in test [10], in [8] and in test [9] was greater than 100 µM in each case.

`O=[N+]([O-])c1ccc(NC(c2ccccc2)c2ccc3cccnc3c2O)cc1` (stereo not given): the GI50 in test [1] is 0.331 µM; in test [2], 0.234 µM; in test [3], 0.548 µM; in test [4], 0.246 µM; in test [5], 0.414 µM; in test [7] it was 0.935 µM. Also, the GI50 in test [10] was 0.826 µM; in test [8], 0.932 µM; in test [9], 0.51 µM. Besides, the TGI in [1] is greater than 100 µM; in test [2], greater than 100 µM; in [3] it was 6.67 µM; in test [4], 7.97 µM; in test [5], greater than 100 µM; in test [7], greater than 100 µM. The TGI in test [10], in test [8] and in [9] was greater than 100 µM throughout.

Turning to `c1ccc2cc(Cn3c(-c4cccc5ccccc45)[n+](Cc4ccc5ccccc5c4)c4c5ccccc5c5ccccc5c43)ccc2c1`, the GI50 in [1] was 0.324 µM; in test [4] it was 0.362 µM; in test [5], 0.248 µM; in test [10], 0.285 µM; in test [9], 0.302 µM. For the same compound, the TGI in [1] turned out to be 1.41 µM; in test [4] it was 2.31 µM; in [5], 1.15 µM; in [10], 1.45 µM; in [9] it was 1.35 µM.

Turning to `[N-]=[N+]=NCCCn1c2c(c3ccccc3c1=O)C(=O)c1cc3c(cc1-2)OCO3`, the GI50 in test [2] is 28.1 µM; in test [3], greater than 100 µM; in [4], 8.3 µM; in [6] it was 0.157 µM; in [7], greater than 100 µM; in test [8], 45.3 µM. In test [9], the GI50 is 26.9 µM. For the same compound, the TGI in test [2], in test [3], in test [4], in test [6], in [7] and in test [8] was greater than 100 µM throughout. In test [9], this compound registered a TGI greater than 100 µM.

With `O=C(O)[C@@H](Cc1ccccc1)NS(=O)(=O)c1ccc(-c2ccccc2)cc1`, the GI50 in [1] is greater than 100 µM; in test [2] it was 24.9 µM; in test [3], greater than 100 µM; in test [4], greater than 100 µM; in test [5] it was greater than 100 µM; in [7], greater than 100 µM. For the same compound, the GI50 in [10], in test [8] and in [9] was greater than 100 µM throughout. Also, the TGI in test [1], in [2], in [3], in test [4], in test [5] and in test [7] was greater than 100 µM in each case. For the same compound, the TGI in [10], in [8] and in test [9] was greater than 100 µM in each case.

For `Nc1ncnc2c1ncn2Cc1ccc(CCl)cc1`, the GI50 in test [1] was 19.4 µM; in [2] it was 19 µM; in test [3], 17.9 µM; in test [4], 24.3 µM; in test [5] it was 17.5 µM; in test [7], 21.2 µM. Further, the GI50 was 19 µM in test [10], 18.1 µM in [8] and 19.6 µM in test [9]. Besides, the TGI in test [1] was 38.3 µM; in test [2] it was 51.6 µM; in test [3], 34.8 µM; in test [4] it was greater than 100 µM; in [5], 37.6 µM; in [7], 35.6 µM. Also, the TGI was found to be 43.4 µM in test [10], 65.7 µM in [8] and 34.6 µM in test [9].

Turning to `Cc1nc(-n2nc(-c3ccccc3)cc2-c2ccccc2)sc1C(/C=C\c1ccc([N+](=O)[O-])cc1)=N/NC(=S)NN`, the TGI in test [1] was greater than 100 µM; in test [2], greater than 100 µM; in [3], greater than 67.7 µM; in test [4], greater than 100 µM; in test [5], 60.6 µM; in [7] it was greater than 31.6 µM. Besides, the TGI is greater than 100 µM in test [10], greater than 59.2 µM in test [8] and greater than 57.7 µM in test [9].

As for `Cc1ccccc1C1SCc2nc3ccccc3n21` (stereo not given), the TGI in test [2] was 49.5 µM; in test [3], greater than 100 µM; in test [4] it was greater than 100 µM; in test [5], greater than 100 µM; in test [7], greater than 100 µM; in [10], greater than 100 µM. The TGI in test [8] and in test [9] was greater than 100 µM in each case.

The values above are taken from PubChem BioAssay (NCI).
